Measurements reported in the supplement of paper PMC10307832.

Assays:
Test in all cases: relative viability (nuclei count vs DMSO), 5 days (fraction); higher = more cells survive
[1] = compound: CCn1c(-c2nonc2N)nc2cnc(Oc3cccc(NC(=O)c4ccc(OCCN5CCOCC5)cc4)c3)cc21 + O=C(CCCCCCC(=O)Nc1ccccc1)NO [Vorinostat] (partner 1 µM)
Summary of the method: (§1)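 Lung cancer cell lines in 1536-well plates got either a single drug or a fixed anchor-drug dose together with five library-drug doses (not always all listed) in √10 steps, by pin tool, on the day after seeding. Nuclei were counted after 5 days, and relative viability is the treated-to-vehicle ratio of nuclei counts. Values are medians of duplicate plates.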

Mirin + Tozasertib = compound: N=C1NC(=O)/C(=C/c2ccc(O)cc2)S1 [Mirin] + Cc1cc(Nc2cc(N3CCN(C)CC3)nc(Sc3ccc(NC(=O)C4CC4)cc3)n2)n[nH]1 [Tozasertib] (partner 0.1 µM)
Summary of the method: as §1

Mirin + Dasatinib = compound: N=C1NC(=O)/C(=C/c2ccc(O)cc2)S1 [Mirin] + Cc1nc(Nc2ncc(C(=O)Nc3c(C)cccc3Cl)s2)cc(N2CCN(CCO)CC2)n1 [Dasatinib] (partner 0.075 µM)
Summary of the method: as §1

[2] = compound: CCn1c(-c2nonc2N)nc2cnc(Oc3cccc(NC(=O)c4ccc(OCCN5CCOCC5)cc4)c3)cc21 + Cc1nc(NC(=O)N2CCC[C@H]2C(N)=O)sc1-c1ccnc(C(C)(C)C(F)(F)F)c1 [Alpelisib] (partner 2 µM)
Summary of the method: as §1

| Cell Line | relative viability ([1]; first compound 0.04 µM) | relative viability ([1]; first compound 0.1265 µM) | relative viability ([1]; first compound 0.4 µM) | relative viability ([1]; first compound 1.265 µM) | relative viability ([1]; first compound 4 µM) | relative viability (Mirin + Tozasertib; first compound 0.25 µM) | relative viability (Mirin + Tozasertib; first compound 0.7906 µM) | relative viability (Mirin + Tozasertib; first compound 2.5 µM) | relative viability (Mirin + Tozasertib; first compound 7.906 µM) | relative viability (Mirin + Tozasertib; first compound 25 µM) | relative viability (Mirin + Dasatinib; first compound 0.25 µM) | relative viability (Mirin + Dasatinib; first compound 2.5 µM) | relative viability (Mirin + Dasatinib; first compound 7.906 µM) | relative viability (Mirin + Dasatinib; first compound 25 µM) | relative viability ([2]; first compound 0.04 µM) | relative viability ([2]; first compound 0.1265 µM) | relative viability ([2]; first compound 0.4 µM) | relative viability ([2]; first compound 1.265 µM) | relative viability ([2]; first compound 4 µM) | relative viability (Mirin + Dasatinib; first compound 0.7906 µM) |
| --- | --- | --- | --- | --- | --- | --- | --- | --- | --- | --- | --- | --- | --- | --- | --- | --- | --- | --- | --- | --- |
| EKVX | 0.786 | 0.365 | 0.757 | 0.513 | 0.647 | 0.397 | 0.323 | 0.368 | 0.322 | 0.345 | 0.671 | 0.565 | 0.494 | 0.564 | 1.16 | 0.83 | 0.883 | 0.764 | 0.837 |  |
| ABC-1 | 1.25 | 0.8 | 0.822 | 0.32 | 0.665 | 0.167 | 0.235 | 0.197 | 0.223 | 0.193 | 0.682 | 0.62 | 0.536 | 0.375 | 1.35 | 0.691 | 0.877 | 0.877 | 0.487 | 0.525 |
| NCI-H596 | 0.598 | 0.531 | 0.617 | 0.468 | 0.604 | 1.05 | 0.953 | 0.972 | 1.13 | 0.866 | 0.643 | 0.559 | 0.525 | 0.569 | 0.482 | 0.51 | 0.612 | 0.49 | 0.55 | 0.596 |
| LCLC-97TM1 | 1.12 | 0.856 |  | 0.705 | 0.662 | 0.191 | 0.151 | 0.19 | 0.138 | 0.122 | 0.773 | 0.868 | 0.737 | 0.765 | 0.276 | 0.236 |  | 0.3 | 0.305 | 0.816 |
| NCI-H2170 | 0.797 | 0.8 | 0.763 | 0.538 | 0.484 | 0.709 | 0.747 | 0.713 | 0.652 | 0.504 | 0.551 | 0.519 | 0.489 | 0.468 | 0.748 | 0.747 | 0.912 | 0.719 | 0.817 | 0.498 |
| NCI-H1793 | 0.721 | 0.712 | 0.602 | 0.424 | 0.496 | 0.341 |  | 0.619 | 0.283 | 0.178 | 0.481 | 0.391 | 0.409 | 0.344 | 0.639 | 0.671 | 0.662 | 0.652 | 0.599 |  |
| NCI-H322M | 1.26 | 1.31 | 0.856 | 0.554 | 0.675 | 0.509 | 0.524 | 0.569 | 0.447 | 0.401 | 0.264 | 0.246 | 0.268 | 0.244 | 0.895 | 0.816 | 0.759 | 0.939 | 0.909 | 0.258 |
| PC-3 [JPC-3] | 0.919 | 0.701 | 0.713 | 0.549 | 0.692 | 0.905 | 0.978 | 0.893 | 0.879 | 0.899 | 1.03 | 1.04 | 0.981 | 1.08 | 1.1 | 1.02 | 1.01 | 1.07 | 1.05 | 0.979 |
| EPLC-272H | 0.467 | 0.545 | 0.425 | 0.357 | 0.348 | 0.267 |  | 0.262 | 0.127 | 0.15 | 0.416 | 0.413 | 0.301 | 0.232 | 1.11 | 0.963 | 0.892 | 0.933 | 0.973 |  |
| A-427 | 0.812 | 0.733 | 0.587 | 0.243 | 0.284 | 0.196 |  | 0.202 | 0.143 | 0.158 | 0.766 | 0.78 | 0.714 | 0.632 | 1.22 | 1.13 | 1.04 | 1.1 | 0.998 |  |
